The values below come from article PMC11305387, “AlphaFold accelerated discovery of psychotropic agonists targeting the trace amine–associated receptor 1” (Science Advances, 2024).

One test relates to WT and TAAR1-KO mice. Nature of the test: Open-field test: baseline locomotion and MK-801-induced hyperlocomotion. It counts as in vivo. The settings on record: compound 65 1 mg/kg, risperidone 0.03 mg/kg. As to the method:
To assess the influence of the compound on baseline locomotion and MK-801–induced hyperlocomotion, mice were subjected to open-field testing on four occasions separated by 96 hours. The first occasion was a mock test session where all mice were injected with vehicle only, serving to reduce the effect of novelty on subsequent sessions. The next three sessions were true test sessions with pretreatment of either compound 65, risperidone, or vehicle, followed by MK-801. The R package agricolae was used to generate a randomized block design, randomizing treatment order across sex, genotype, and test session. After injection with either compound 65 (1 mg/kg), risperidone (0.03 mg/kg), or vehicle intraperitoneally, mice were immediately placed in the open field and recorded for 15 min. They were then injected with MK-801 (0.35 mg/kg intraperitoneal) and recorded again for 60 min. The OFT arena measured 46 cm by 46 cm with gray floor and walls. The brightness at the center of each arena was 30 to 50 lux. The arenas were cleaned with 70% ethanol between each animal. Video from a camera mounted in the ceiling was analyzed using EthoVision XT11.5 (Noldus) software.

The next test concerns the target T1, α2A receptor (Homo sapiens, UniProt P08913).
T1 construct: TANGO fusion module (own knowledge, Kroeze et al.: C-terminal V2 tail, TEV site and tTA); 1000000068; host or cells: HTLA (HEK293-derived)
T1 sequence (P08913 1-465): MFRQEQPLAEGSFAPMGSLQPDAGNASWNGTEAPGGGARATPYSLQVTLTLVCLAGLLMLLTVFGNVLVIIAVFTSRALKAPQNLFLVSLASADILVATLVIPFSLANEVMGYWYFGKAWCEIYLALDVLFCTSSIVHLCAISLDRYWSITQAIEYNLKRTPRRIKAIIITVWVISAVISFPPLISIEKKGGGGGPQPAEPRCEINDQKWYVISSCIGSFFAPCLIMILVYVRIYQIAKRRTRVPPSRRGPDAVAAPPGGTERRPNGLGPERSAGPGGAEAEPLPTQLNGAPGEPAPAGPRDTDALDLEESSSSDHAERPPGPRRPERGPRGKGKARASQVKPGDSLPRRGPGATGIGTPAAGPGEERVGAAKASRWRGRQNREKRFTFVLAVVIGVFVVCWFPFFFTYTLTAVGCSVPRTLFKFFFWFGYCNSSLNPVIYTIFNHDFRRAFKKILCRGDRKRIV
Nature of the test: PRESTO-TANGO β-arrestin recruitment. The class given is cell-based. On the technique in general: Recruitment of arrestin is a read-out of receptor activation apart from second messengers.

The next test deals with T2, 5-HT1D receptor (Homo sapiens, UniProt P28221).
T2 construct: TANGO fusion module (own knowledge, Kroeze et al.: C-terminal V2 tail, TEV site and tTA); 1000000068; host or cells: HTLA (HEK293-derived)
T2 sequence (P28221 whole entry, the tested form may be a part): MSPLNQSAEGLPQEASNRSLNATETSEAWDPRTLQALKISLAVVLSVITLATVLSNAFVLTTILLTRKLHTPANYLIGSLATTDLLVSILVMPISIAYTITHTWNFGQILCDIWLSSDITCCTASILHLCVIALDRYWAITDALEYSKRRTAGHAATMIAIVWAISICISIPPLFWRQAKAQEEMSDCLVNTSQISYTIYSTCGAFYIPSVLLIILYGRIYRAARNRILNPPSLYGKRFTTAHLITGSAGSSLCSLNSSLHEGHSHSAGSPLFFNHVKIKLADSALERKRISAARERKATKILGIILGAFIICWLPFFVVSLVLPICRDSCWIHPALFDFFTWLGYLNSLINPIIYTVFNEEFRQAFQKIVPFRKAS
Kind of test: PRESTO-TANGO β-arrestin recruitment. The class given is cell-based. As to the method:
Assessment of receptor activation by compounds at all human aminergic receptors were carried out using a modified version of the PRESTO-TANGO method. […] The plate was spun down, and 5 μl of a 1:25 dilution (in DPBS) of polyethylenimine (PEI) derivative (Transporter 5, Polysciences) was added (1:4 cDNA to PEI ratio) and incubated for 20 min at room temperature (RT). […] Luminescence signal was detected using a plate-reader (SPARK, Tecan) with 100-ms integration time and a 100-ms delay between well reads.

With `CC1=C(c2ccco2)CNCC1` [Compound 65], the effect on locomotion entry in the test on WT and TAAR1-KO mice (TAAR1-KO mice) is given as “did not exhibit such an effect”. The “effect on MK-801–induced hyperlocomotion” value with WT and TAAR1-KO mice (WT mice, MK-801 0.35 mg/kg) is given as “significant decrease”. In the test with WT and TAAR1-KO mice (WT mice, versus vehicle), the “effect on baseline locomotion” value is “trend toward decreased locomotion”. The results for the concentration for a half-maximal effect (EC50) at α2A receptor and on 5-HT1D receptor were 1000 nM and above 1000 nM, respectively. The Emax (in general, the size of the effect at its maximum, as opposed to the concentration needed) at α2A receptor (concentration-response curves) was determined as 110%; on 5-HT1D receptor, 75%. On α2A receptor (panel screen), the “agonism at the α2A receptor” value was “agonism”. Moreover, at 5-HT1D receptor (panel screen), the “agonism at the 5-HT1D receptor” value is “agonism”.
